System: vitiligo model in mice
Test: Vitiligo model in mice (monobenzone)
Assay type: in vivo, C57BL/6 mice
Details: for IL-6 level in serum / TNF-α level in serum: 3% MDI-1228 gel
Procedure: • (1) Normal control group (5 mice, no treatment) • (2) Vitiligo model group (8 mice, no treatment) • (3) Vitiligo model+vehicle treatment group (8 mice, blank gel preparation, dose: 1.5 g/kg, twice daily) • (4) Vitiligo model+positive control drug treatment group (8 mice, 0.03% Tacrolimus, twice daily, 50 mg per dose) • (5) Vitiligo model+MDI-1228 (0.5%) compound gel preparation group (8 mice, 1 g/kg, twice daily) • (6) Vitiligo model+MDI-1228 (1%) compound gel preparation group (8 mice, 1.5 g/kg, twice daily) • (7) Vitiligo model+MDI-1228 (3%) compound gel preparation group (8 mice, 1.5 g/kg, twice daily) • Experimental environment: Temperature 20° C.-26° C., humidity 40%-70%
Modeling: Mice were acclimated for 7 days and subjected to vitiligo modeling by removing the black hair from a 2 cm^2 area on the back of the mice and applying the medication with a spatula using moderate force. The normal control group was administrated with Vaseline 50 mg once daily; and the model group was administrated with 40% monobenzone cream 50 mg once daily for 93 consecutive days.
Model validation: One mouse from the blank group and one from the model group were selected for model validation. The criteria for hair depigmentation assessment: Observe the skin & hair depigmentation daily and record the scores. Divide the depigmented area into the treated area and the non-treated area, with a total score of 5 for each area, making a total of 10 points for each mouse. The scoring criteria for mouse skin & hair depigmentation: 0 points for no depigmentation, 1 point for depigmentation area of 0-10%, 2 points for depigmentation area of 11%-25%, 3 points for depigmentation area of 26%-50%, 4 points for depigmentation area of 51%-75%, and 5 points for depigmentation area of 76%-100%.
After a 35-days treatment administration, a 15-day visual observation of the therapeutic efficacy for vitiligo in the treated mice began, with observations conducted every 3 days (for a total of 5 times) and photographs taken during each observation. The criteria for evaluating efficacy were as follows: The depigmented areas were divided into treated and non-treated areas, with a total score of 5 for each area, making a total of 10 points for each mouse. The scoring criteria for mouse skin & hair depigmentation are: 0 points for no depigmentation, 1 point for a depigmentation area of 0-10%, 2 points for a depigmentation area of 11%-25%, 3 points for a depigmentation area of 26%-50%. 4 points for a depigmentation area of 51%-75%, and 5 points for a depigmentation area of 76%-100%.
(1) HE Staining: The removed tissue was rinsed with running water for several hours, dehydrated through a series of ethanol solutions (70%, 80%, 90%), and then treated with a mixture of pure alcohol and xylene at a ratio of 1:1 for 15 minutes, followed by xylene I for 15 minutes and xylene II for 15 minutes (until transparent). The tissue was then placed in a mixture of xylene and paraffin at a ratio of 1:1 for 15 minutes, followed by immersion with paraffin I and paraffin II each for 50-60 minutes. The tissue was embedded in paraffin and sectioned. The sections were mounted, baked, dewaxed and hydrated in distilled water. The resulting sections were then stained in hematoxylin solution for 3 minutes, differentiated in a hydrochloric acid alcohol solution for 15 seconds, slightly washed, blued in a return blue solution for 15 seconds, rinsed with running water, stained with eosin for 3 minutes, rinsed with running water, dehydrated, cleared, and mounted for microscopic examination.
(2) ELISA detection: A double-antibody one-step sandwich Enzyme-linked Immunosorbent Assay (ELISA) kit was used. A capture antibody for the mouse target indicators was pre-coated onto microplate wells, to which samples, standards, and HRP-labeled detection antibodies were added sequentially, followed by incubation and thorough washing. […]

[1] = 0.5%, 1%, positive control drug, vs. model group

CCc1cc(O)c(F)cc1-c1ccc2c(-c3nc4c([nH]3)CN(C(=O)N3CC[C@H](O)C3)C4)n[nH]c2c1 [MDI-1228, (S)-(2-(6-(2-ethyl-5-fluoro-4-hydroxyphenyl)-1H-indazol-3-yl)-4,6-dihydropyrrolo[3,4-d]imidazol-5-(1H)-yl)(3-hydroxylpyrrolidin-1-yl)ketone]
Skin & hair depigmentation area scores (0.5%, 1%, 3% MDI-1228 gel twice daily, vs. model group): a reduction in depigmentation area scores
IL-6 level in serum [1]: a reduced IL-6 level
TNF-α level in serum [1]: a reduced TNF-α level
Skin HE staining (hair follicles, melanin granules) (1% and 3% MDI-1228 gel): the most significant effects
IL-6 level in serum: the most significant reduction in IL-6 level
TNF-α level in serum: the most significant reduction in TNF-α level
Area under the curve (AUC) of depigmentation scores (3% MDI-1228 gel 1.5 g/kg twice daily, vs. model group): the greatest reduction in AUC scores
Therapeutic effect in vitiligo mice (conclusion) (different concentrations of MDI-1228): significant therapeutic effect

Source: patent US20250387388A1, “COMPOUND AS TRK INHIBITOR AND/OR RET INHIBITOR AND USE THEREOF” (Medinno Pharmaceutical Technology (Zhuhai) Co., Ltd., priority 2022, published 2025)
